In ChEMBL document CHEMBL1143015, “Hyrtinadine A, a bis-indole alkaloid from a marine sponge” (J Nat Prod, 2007):
≈ marks a conversion by molar mass, not a printed value.

Experiments:
[1] = system: L1210; test: Cytotoxicity against mouse L1210 cells; type: cell-based
[2] = system: KB; test: Cytotoxicity against human KB cells; type: cell-based

## Oc1ccc2[nH]cc(-c3cnc(-c4c[nH]c5ccc(O)cc45)nc3)c2c1 [HYRTINADINE A]
[1]
  IC50: 1 µg/mL (≈ 2.92 µM)
[2]
  IC50: 3 µg/mL (≈ 8.76 µM)
